Here are results for three compounds from US20230047102A1, “PHARMACEUTICAL COMPOSITIONS COMPRISING N-[1-(5-CYANO-PYRIDIN-2-YLMETHYL)-1H-PYRAZOL-3-YL]-2-[4-(1-TRIFLUOROMETHYL-CYCLOPROPYL)-PHENYL]-ACETAMIDE” (Idorsia Pharmaceuticals Ltd, priority 2019, published 2023).

The nature of series [1]: Steady-state exposure with 60 mg once-daily dose in adults. The note with it: 60 mg once-daily dose at steady state in adults; 95% confidence interval 11.2, 16.7. The class given is in vivo, human. The procedure: The starting dose of study treatment for the sentinel cohort (dose level 1) will be based on body weight categories (based on subjects' body weight on Day 1), as detailed in the table below. This study intends to target exposures equivalent to those observed with a 60 mg once-daily dose at steady state in adults (area under the concentration versus time curve during 1 dosing interval [AUCT] of 13.7 μgxh/mL [95% confidence interval (CD: 11.2, 16.7 μgxh/m14. Based on the exposure data obtained from the sentinel cohort, the doses may be adjusted if required to achieve the targeted exposure in the main cohort.

The conditions of series [2]: subject to certain variations of this value found in the literature; cited from earlier work.

`N#Cc1ccc(Cn2ccc(NC(=O)Cc3ccc(C4(C(F)(F)F)CC4)cc3)n2)nc1` [NBI-827104, N-[1-(5-cyano-pyridin-2-ylmethyl)-1H-pyrazol-3-yl]-2-[4-(1-trifluoromethyl-cyclopropyl)-phenyl]-acetamide]: the “area under the concentration versus time curve during 1 dosing interval [AUCT]” value in series [1] was determined as 13.7 μgxh/mL.

Consider `CCCCCCCCCCCCOS(=O)(=O)[O-].[Na+]` [SLS, Sodium lauryl sulfate], for which the “hydrophilic-lipophilic balance (HLB) value” in series [2] was “about 40”.

As for Poloxamer 188, the “hydrophilic-lipophilic balance (HLB) value” in series [2] is given as “about 29”.
